Results published in the supplement of paper PMC10627819.

Legend:
[1] = test system: B. subtilis 168; experiment: fitness (endpoint OD595 vs no drug) (fraction); higher = more growth
Method in brief: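 At 37 °C, bacteria in TSB, LB Lennox or CY were grown in 384-well plates from a starting OD595 of 0.01. OD595 was measured every 30 min for 14 h, with the first reading used as background. Fitness is the optical density at the switch to stationary phase as a fraction of the robust mean of no-drug control wells, capped at 1.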

[2] = test system: S. aureus Newman; experiment: Bliss interaction score (quartile over a dose matrix) (fitness difference); higher = more antagonism (negative = synergy)
Method in brief: (§1)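 Fitness was defined as normalised growth: OD595 at the start of stationary phase divided by the plate's robust no-drug mean and capped at 1. Single-drug fitness was inferred from combination measurements. The Bliss score is observed fitness minus the product of the single-drug values, summarised by quartiles across technical, biological and donor/recipient replicates.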

[3] = test system: S. pneumoniae D39V; experiment: as above
Method in brief: as §1

[4] = test system: B. subtilis 168; experiment: as above
Method in brief: as §1

[5] = test system: S. aureus DSM 20231; experiment: as above
Method in brief: as §1
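For Bliss interaction score (quartile over a dose matrix) in this document: first quartile when negative (synergy) and third quartile when positive (antagonism).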
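For fitness (endpoint OD595 vs no drug) in this document: OD595 on entry to stationary phase over no-drug wells; at most 1.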

C[C@H]1c2cccc(O)c2C(=O)C2=C(O)[C@]3(O)C(=O)C(C(N)=O)=C(O)[C@@H](N(C)C)[C@@H]3[C@@H](O)[C@@H]21 [Doxycycline] + COc1cc(Cc2cnc(N)nc2N)cc(OC)c1OC [Trimethoprim]
fitness, [1], one replicate
Conditions | partner 0.1 µg/mL | partner 0.2 µg/mL | partner 0.4 µg/mL | partner 1 µg/mL | partner 2 µg/mL
first compound 0.02 µg/mL | 0.84 | 0.754 | 0.616 | 0.346 | 0.259
first compound 0.04 µg/mL | 0.683 | 0.51 | 0.391 | 0.234 | 0.146
first compound 0.08 µg/mL | 0.362 | 0.222 | 0.156 | 0.0631 | 0.0715

fitness, [1]
Conditions | first compound 0.02 µg/mL | first compound 0.04 µg/mL | first compound 0.08 µg/mL
partner 0.125 µg/mL | 0.695 | 0.659 | 0.52
partner 0.25 µg/mL | – | 0.644 | 0.448
partner 0.5 µg/mL | – | 0.412 | 0.262

Conditions | Bliss interaction score
[2] | 0.028
[3] | -0.108
[4] | 0.0804
[5] | 0.108

CO/N=C(\C(=O)N[C@@H]1C(=O)N2C(C(=O)O)=C(COC(N)=O)CS[C@H]12)c1ccco1 [Cefuroxime] + CN(C)C(=O)C(CCN1CCC(O)(c2ccc(Cl)cc2)CC1)(c1ccccc1)c1ccccc1 [Loperamide]
fitness, [1]
Conditions | first compound 0.04875 µg/mL | first compound 0.0975 µg/mL | first compound 0.195 µg/mL
partner 50 µg/mL | 0.0325 | 0.0377 | 0.0259
partner 100 µg/mL | 0.0294 | 0.0312 | 0.0385

fitness, [1], one replicate
Conditions | first compound 1.562 µg/mL | first compound 3.125 µg/mL | first compound 6.25 µg/mL
partner 25 µg/mL | 0.0361 | 0.0294 | 0.0192
partner 50 µg/mL | 0.0196 | 0.033 | 0.0196
partner 100 µg/mL | 0.012 | 0.0049 | 0.0099

Conditions | Bliss interaction score
[2] | -0.0645
[3] | -0.0403
[4] | -0.12
[5] | -0.521

CO/N=C(\C(=O)N[C@@H]1C(=O)N2C(C(=O)O)=C(COC(N)=O)CS[C@H]12)c1ccco1 [Cefuroxime] + C[C@H]1COc2c(N3CCN(C)CC3)c(F)cc3c(=O)c(C(=O)O)cn1c23 [Levofloxacin]
fitness, [1], one replicate
Conditions | first compound 0.04875 µg/mL | first compound 0.0975 µg/mL | first compound 0.195 µg/mL | first compound 0.39 µg/mL | first compound 0.78 µg/mL | first compound 1.562 µg/mL | first compound 3.125 µg/mL | first compound 6.25 µg/mL
partner 0.001 µg/mL | – | – | 0.284 | 0.15 | 0.156 | – | – | –
partner 0.002 µg/mL | 0.503 | 0.466 | – | 0.146 | 0.112 | – | – | –
partner 0.0039 µg/mL | 0.498 | 0.456 | – | 0.127 | 0.0881 | – | – | –
partner 0.0078 µg/mL | 0.432 | 0.397 | 0.334 | – | – | – | – | –
partner 0.0312 µg/mL | 0.055 | 0.0225 | 0.0495 | – | – | 0.0432 | 0.0263 | 0.0208
partner 0.0625 µg/mL | 0.0626 | 0.0281 | 0.0412 | – | – | 0.0291 | 0.027 | 0.0162
partner 0.125 µg/mL | 0.0489 | 0.0206 | 0.0412 | – | – | 0.0267 | 0.0197 | 0.0093

[1], first compound 0.195 µg/mL
Conditions | fitness
partner 0.002 µg/mL | 0.291
partner 0.0039 µg/mL | 0.267

Conditions | Bliss interaction score
[2] | -0.146
[3] | 0.0603
[4] | -0.0899
[5] | -0.22

CO/N=C(\C(=O)N[C@@H]1C(=O)N2C(C(=O)O)=C(COC(N)=O)CS[C@H]12)c1ccco1 [Cefuroxime] + CO[C@@H]1[C@@H](OC(N)=O)[C@@H](O)[C@H](Oc2ccc3c(O)c(NC(=O)c4ccc(O)c(CC=C(C)C)c4)c(=O)oc3c2C)OC1(C)C [Novobiocin]
[1], one replicate
Conditions | fitness
first compound 0.04875 µg/mL, partner 0.0125 µg/mL | ≥ 1
first compound 0.04875 µg/mL, partner 0.025 µg/mL | 0.997
first compound 0.04875 µg/mL, partner 0.1 µg/mL | 0.563
first compound 0.04875 µg/mL, partner 0.2 µg/mL | 0.528
first compound 0.0975 µg/mL, partner 0.0125 µg/mL | 0.824
first compound 0.0975 µg/mL, partner 0.025 µg/mL | 0.893
first compound 0.0975 µg/mL, partner 0.1 µg/mL | 0.483
first compound 0.0975 µg/mL, partner 0.2 µg/mL | 0.429
first compound 0.195 µg/mL, partner 0.0125 µg/mL | 0.756
first compound 0.195 µg/mL, partner 0.025 µg/mL | 0.76
first compound 0.195 µg/mL, partner 0.1 µg/mL | 0.36
first compound 0.195 µg/mL, partner 0.125 µg/mL | 0.133
first compound 0.195 µg/mL, partner 0.2 µg/mL | 0.335
first compound 0.195 µg/mL, partner 0.25 µg/mL | 0.108
first compound 0.195 µg/mL, partner 0.5 µg/mL | 0.017
first compound 0.39 µg/mL, partner 0.125 µg/mL | 0.116
first compound 0.39 µg/mL, partner 0.25 µg/mL | 0.0783
first compound 0.39 µg/mL, partner 0.5 µg/mL | 0
first compound 0.78 µg/mL, partner 0.125 µg/mL | 0.0821
first compound 0.78 µg/mL, partner 0.25 µg/mL | 0.0334
first compound 0.78 µg/mL, partner 0.5 µg/mL | 0.0061
first compound 1.562 µg/mL, partner 0.0125 µg/mL | 0.318
first compound 1.562 µg/mL, partner 0.025 µg/mL | 0.274
first compound 1.562 µg/mL, partner 0.05 µg/mL | 0.263
first compound 3.125 µg/mL, partner 0.0125 µg/mL | 0.264
first compound 3.125 µg/mL, partner 0.025 µg/mL | 0.23
first compound 3.125 µg/mL, partner 0.05 µg/mL | 0.189
first compound 6.25 µg/mL, partner 0.0125 µg/mL | 0.249
first compound 6.25 µg/mL, partner 0.025 µg/mL | 0.178
first compound 6.25 µg/mL, partner 0.05 µg/mL | 0.159

[1], partner 0.05 µg/mL
Conditions | fitness
first compound 0.0975 µg/mL | 0.665
first compound 0.195 µg/mL | 0.555

Conditions | Bliss interaction score
[2] | -0.131
[3] | 0.0773
[4] | -0.0729
[5] | 0.119
